No end group written: not given here.

Assay [1] has as its target T1, MIK2 ectodomain (MIK2ECD, residues 1–709) (Arabidopsis thaliana, UniProt Q8VZG8).
T1 construct: Arabidopsis thaliana MIK2 (residues 1–709); StrepII-9xHis (TEV-cleavable) (C, cleaved yes); made in house; host or cells: Trichoplusia ni Tnao38 insect cells (baculovirus, modified pFastBac)
T1 sequence (Q8VZG8 44-709): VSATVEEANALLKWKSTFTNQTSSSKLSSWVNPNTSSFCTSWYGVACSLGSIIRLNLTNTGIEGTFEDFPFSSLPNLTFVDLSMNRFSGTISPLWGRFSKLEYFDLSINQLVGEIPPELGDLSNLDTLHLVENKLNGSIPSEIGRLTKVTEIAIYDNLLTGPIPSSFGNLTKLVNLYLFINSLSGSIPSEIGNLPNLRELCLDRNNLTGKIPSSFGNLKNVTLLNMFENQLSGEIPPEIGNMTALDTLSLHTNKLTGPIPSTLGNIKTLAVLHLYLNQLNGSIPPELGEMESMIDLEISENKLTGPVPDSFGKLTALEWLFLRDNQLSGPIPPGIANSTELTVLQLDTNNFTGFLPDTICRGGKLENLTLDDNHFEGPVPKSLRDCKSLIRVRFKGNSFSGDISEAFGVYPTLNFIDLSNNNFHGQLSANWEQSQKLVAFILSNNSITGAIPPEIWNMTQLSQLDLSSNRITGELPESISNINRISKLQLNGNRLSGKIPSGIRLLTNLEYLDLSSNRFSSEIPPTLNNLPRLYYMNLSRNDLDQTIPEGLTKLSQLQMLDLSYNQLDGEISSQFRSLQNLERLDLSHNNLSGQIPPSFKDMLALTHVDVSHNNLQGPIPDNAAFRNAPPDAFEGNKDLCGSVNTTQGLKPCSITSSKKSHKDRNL
Briefly: ITC, MIK2 vs SCOOP12. It counts as binding. From the text:
ITC data were corrected for the heat of dilution by subtracting the mixing enthalpies for titrant solution injections into protein-free ITC buffer. […] The N values were fitted to 1 in the analysis.
(In ITC the heat of successive injections is recorded.)

The next assay deals with A. thaliana seedlings. Briefly: Seedling growth inhibition (fresh weight). Format: in vivo, Arabidopsis thaliana. As to conditions: mock mean = 1. The protocol:
Four-day-old seedlings growing on MS plates were transferred individually into separate wells of transparent 48-well tissue culture plates (Greiner Bio-One) containing 500 μL of liquid MS media with/without elicitor addition. The plates were then transferred back to the growth conditions for an additional 10 days before seedlings were blot-dried and weighed.

In assay [2] the target is MIK2 ectodomain (MIK2^ECD, residues 1–709) (Arabidopsis thaliana) (UniProt Q8VZG8). Briefly: ITC; 200 μM SCOOP12 in the syringe injected into 20 μM MIK2 ectodomain in the cell; 25 °C; 20 mM sodium citrate pH 5.0, 150 mM NaCl; N fitted to 1.
Assay [3] deals with MIK2–SCOOP12 complex (MIK2 ectodomain with SCOOP12 peptide, formed beforehand in the ITC cell) (Arabidopsis thaliana) (UniProt Q8VZG8). Briefly: ITC; 200 µM BAK1 ectodomain titrated onto the MIK2–SCOOP12 complex in the cell; 25 °C; 20 mM sodium citrate pH 5.0, 150 mM NaCl; N fitted to 1.

Regarding PVRSSQSSQAGGR [SCOOP12], the dissociation constant (Kd) (usually the constant that tells how readily two partners part at equilibrium) in assay [1] was determined as 4.56 ± 0.299 µM.

On to RAGPSKSGQGGGR [SCOOP7], for which the “Seedling fresh weight (Fig3C), relative to mock” value with A. thaliana seedlings (Col-0, 1 μM, replicate 1) is given as 0.0761; in the assay with A. thaliana seedlings (Col-0, 1 μM, replicate 2), 0.03653; in the assay with A. thaliana seedlings (Col-0, 1 μM, replicate 3), 0.1644; with A. thaliana seedlings (Col-0, 1 μM, replicate 4) it was 0.1522; in the assay on A. thaliana seedlings (Col-0, 1 μM, replicate 5) it was 0.1644; with A. thaliana seedlings (Col-0, 1 μM, replicate 6) it was 0.01826. Besides, the “Seedling fresh weight (Fig3C), relative to mock” value came out at 0.0761 in the assay on A. thaliana seedlings (Col-0, 1 μM, replicate 7); 0.07914 with A. thaliana seedlings (Col-0, 1 μM, replicate 8); 0.09436 in the assay on A. thaliana seedlings (Col-0, 1 μM, replicate 9); 0.08523 with A. thaliana seedlings (Col-0, 1 μM, replicate 10); 0.1218 in the assay with A. thaliana seedlings (Col-0, 1 μM, replicate 11); 0.1035 with A. thaliana seedlings (Col-0, 1 μM, replicate 12). Further, the “Seedling fresh weight (Fig3C), relative to mock” value in the assay with A. thaliana seedlings (Col-0, 10 μM, replicate 1) was found to be 0.009098; in the assay on A. thaliana seedlings (Col-0, 10 μM, replicate 2), 0.006065; in the assay on A. thaliana seedlings (Col-0, 10 μM, replicate 3) it was 0.003033; in the assay on A. thaliana seedlings (Col-0, 10 μM, replicate 4), 0.009098; in the assay with A. thaliana seedlings (Col-0, 10 μM, replicate 5), 0.01213; in the assay with A. thaliana seedlings (Col-0, 10 μM, replicate 6) it was 0.009098. The “Seedling fresh weight (Fig3C), relative to mock” value in the assay with A. thaliana seedlings (Col-0, 10 μM, replicate 7) came out at 0.01213; with A. thaliana seedlings (Col-0, 10 μM, replicate 8), 0.009098; with A. thaliana seedlings (Col-0, 10 μM, replicate 9) it was 0.01213; in the assay with A. thaliana seedlings (Col-0, 10 μM, replicate 10), 0.009098; in the assay on A. thaliana seedlings (Col-0, 10 μM, replicate 11) it was 0.01516; in the assay with A. thaliana seedlings (Col-0, 10 μM, replicate 12) it was 0.006065. For the same molecule, the “Seedling fresh weight (Fig3C), relative to mock” value with A. thaliana seedlings (mik2-1, 1 μM, replicate 1) was determined as 1.0796; in the assay on A. thaliana seedlings (mik2-1, 1 μM, replicate 2), 1.12; in the assay with A. thaliana seedlings (mik2-1, 1 μM, replicate 3), 1.033; in the assay with A. thaliana seedlings (mik2-1, 1 μM, replicate 4), 0.9787; in the assay on A. thaliana seedlings (mik2-1, 1 μM, replicate 5), 1.006; with A. thaliana seedlings (mik2-1, 1 μM, replicate 6), 0.861. The “Seedling fresh weight (Fig3C), relative to mock” value turned out to be 0.9955 in the assay with A. thaliana seedlings (mik2-1, 1 μM, replicate 7); 0.9652 in the assay on A. thaliana seedlings (mik2-1, 1 μM, replicate 8); 0.9047 in the assay on A. thaliana seedlings (mik2-1, 1 μM, replicate 9); 1.0157 in the assay on A. thaliana seedlings (mik2-1, 1 μM, replicate 10); 1.049 in the assay with A. thaliana seedlings (mik2-1, 1 μM, replicate 11); 0.9518 with A. thaliana seedlings (mik2-1, 1 μM, replicate 12). Moreover, the “Seedling fresh weight (Fig3C), relative to mock” value is reported as 1.014 in the assay on A. thaliana seedlings (mik2-1, 10 μM, replicate 1); 0.9772 in the assay with A. thaliana seedlings (mik2-1, 10 μM, replicate 2); 0.9332 in the assay on A. thaliana seedlings (mik2-1, 10 μM, replicate 3); 0.9062 in the assay with A. thaliana seedlings (mik2-1, 10 μM, replicate 4); 1.001 with A. thaliana seedlings (mik2-1, 10 μM, replicate 5); 0.94 with A. thaliana seedlings (mik2-1, 10 μM, replicate 6). The “Seedling fresh weight (Fig3C), relative to mock” value in the assay with A. thaliana seedlings (mik2-1, 10 μM, replicate 7) came out at 1.035; with A. thaliana seedlings (mik2-1, 10 μM, replicate 8), 1.085; with A. thaliana seedlings (mik2-1, 10 μM, replicate 9), 1.062; in the assay on A. thaliana seedlings (mik2-1, 10 μM, replicate 10), 0.9197; in the assay on A. thaliana seedlings (mik2-1, 10 μM, replicate 11), 0.9569; with A. thaliana seedlings (mik2-1, 10 μM, replicate 12) it was 0.9028.

“SERINE RICH ENDOGENOUS PEPTIDE 12 (SCOOP12) synthetic peptide” returned a Kd in assay [2] of 4.6 µM.

For the molecule YLPPSKSRKGKGP [SCOOP13], the “Seedling fresh weight (Fig3C), relative to mock” value worked out at 0.6301 in the assay on A. thaliana seedlings (Col-0, 1 μM, replicate 1); 0.5631 in the assay with A. thaliana seedlings (Col-0, 1 μM, replicate 2); 0.764 in the assay with A. thaliana seedlings (Col-0, 1 μM, replicate 3); 0.8644 with A. thaliana seedlings (Col-0, 1 μM, replicate 4); 0.9892 in the assay on A. thaliana seedlings (Col-0, 1 μM, replicate 5); 0.5388 in the assay with A. thaliana seedlings (Col-0, 1 μM, replicate 6). For the same molecule, the “Seedling fresh weight (Fig3C), relative to mock” value is 0.6544 in the assay on A. thaliana seedlings (Col-0, 1 μM, replicate 7); 0.7792 with A. thaliana seedlings (Col-0, 1 μM, replicate 8); 0.7397 in the assay on A. thaliana seedlings (Col-0, 1 μM, replicate 9); 0.831 in the assay on A. thaliana seedlings (Col-0, 1 μM, replicate 10); 0.6483 in the assay on A. thaliana seedlings (Col-0, 1 μM, replicate 11); 0.7549 in the assay on A. thaliana seedlings (Col-0, 1 μM, replicate 12). Further, the “Seedling fresh weight (Fig3C), relative to mock” value is recorded as 0.02426 in the assay with A. thaliana seedlings (Col-0, 10 μM, replicate 1); 0.03639 in the assay with A. thaliana seedlings (Col-0, 10 μM, replicate 2); 0.03942 in the assay with A. thaliana seedlings (Col-0, 10 μM, replicate 3); 0.03336 in the assay on A. thaliana seedlings (Col-0, 10 μM, replicate 4); 0.04246 with A. thaliana seedlings (Col-0, 10 μM, replicate 5); 0.03033 with A. thaliana seedlings (Col-0, 10 μM, replicate 6). Besides, the “Seedling fresh weight (Fig3C), relative to mock” value worked out at 0.03639 with A. thaliana seedlings (Col-0, 10 μM, replicate 7); 0.06975 in the assay with A. thaliana seedlings (Col-0, 10 μM, replicate 8); 0.07278 with A. thaliana seedlings (Col-0, 10 μM, replicate 9); 0.04549 with A. thaliana seedlings (Col-0, 10 μM, replicate 10); 0.03942 in the assay on A. thaliana seedlings (Col-0, 10 μM, replicate 11); 0.04852 in the assay with A. thaliana seedlings (Col-0, 10 μM, replicate 12). Further, the “Seedling fresh weight (Fig3C), relative to mock” value in the assay on A. thaliana seedlings (mik2-1, 1 μM, replicate 1) was found to be 0.9552; in the assay on A. thaliana seedlings (mik2-1, 1 μM, replicate 2), 1.033; with A. thaliana seedlings (mik2-1, 1 μM, replicate 3) it was 0.6626; with A. thaliana seedlings (mik2-1, 1 μM, replicate 4), 0.8038; in the assay on A. thaliana seedlings (mik2-1, 1 μM, replicate 5), 1.026; with A. thaliana seedlings (mik2-1, 1 μM, replicate 6), 0.9081. Further, the “Seedling fresh weight (Fig3C), relative to mock” value is reported as 1.002 in the assay with A. thaliana seedlings (mik2-1, 1 μM, replicate 7); 0.9854 with A. thaliana seedlings (mik2-1, 1 μM, replicate 8); 1.022 in the assay on A. thaliana seedlings (mik2-1, 1 μM, replicate 9); 1.049 with A. thaliana seedlings (mik2-1, 1 μM, replicate 10); 1.127 in the assay with A. thaliana seedlings (mik2-1, 1 μM, replicate 11); 1.002 with A. thaliana seedlings (mik2-1, 1 μM, replicate 12). Besides, the “Seedling fresh weight (Fig3C), relative to mock” value in the assay with A. thaliana seedlings (mik2-1, 10 μM, replicate 1) is given as 1.163; in the assay on A. thaliana seedlings (mik2-1, 10 μM, replicate 2), 0.8385; in the assay on A. thaliana seedlings (mik2-1, 10 μM, replicate 3), 1.18; with A. thaliana seedlings (mik2-1, 10 μM, replicate 4) it was 1.075; in the assay on A. thaliana seedlings (mik2-1, 10 μM, replicate 5) it was 0.8419; in the assay with A. thaliana seedlings (mik2-1, 10 μM, replicate 6), 0.8825. Moreover, the “Seedling fresh weight (Fig3C), relative to mock” value was 1.082 with A. thaliana seedlings (mik2-1, 10 μM, replicate 7); 0.9738 in the assay with A. thaliana seedlings (mik2-1, 10 μM, replicate 8); 0.9332 in the assay with A. thaliana seedlings (mik2-1, 10 μM, replicate 9); 0.9569 in the assay with A. thaliana seedlings (mik2-1, 10 μM, replicate 10); 0.9941 in the assay on A. thaliana seedlings (mik2-1, 10 μM, replicate 11); 0.896 with A. thaliana seedlings (mik2-1, 10 μM, replicate 12).

B1: BAK1 ectodomain (residues 1–220) (domain or fragment)
chain: NAEGDALSALKNSLADPNKVLQSWDATLVTPCTWFHVTCNSDNSVTRVDLGNANLSGQLVMQLGQLPNLQYLELYSNNITGTIPEQLGNLTELVSLDLYLNNLSGPIPSTLGRLKKLRFLRLNNNSLSGEIPRSLTAVLTLQVLDLSNNPLTGDIPVNGSFSLFTPISFANTKLTPLPASPPPPISPTPPSPAGS
The molecule B1 yielded a dissociation constant Kd in assay [3] of 0.275 µM.
